Experimental data from KR20130112248A, “피라졸로피리미딘 유도체 화합물, 이를 포함하는 산화질소 생성 억제용 조성물 및 뇌신경 질환 예방 및 치료용 약학적 조성물” (한국과학기술연구원, priority 2012, dated 2013).

system: NO production in BV-2 cells [NO 생성; BV-2 세포]; test: Nitric oxide (NO) quantification (nitrite, Griess reaction) in LPS-activated BV-2 cells; format: cell-based; details: 20 μM, LPS 0.2 ㎍/mL, 24 h co-treatment, nitrite by Griess at 540 nm

Compound	NO (% of LPS)
1-(2-메톡시펜에틸)-N-(4-메톡시벤질)-6-(메틸설포닐)-1H-피라졸로[3,4-d]피리미딘-4-아민 [화합물 23zb]	49±2.9 % of LPS
1-(N-t-Boc-아미노에틸)-4-(1-하이드록시에틸)아미노-6-(메틸티오)피라졸로[3,4-d]피리미딘 [화합물 14b]	102±4 % of LPS
1-t-뷰틸-4-(1-하이드록시에틸)아미노-6-(메틸티오)피라졸로[3,4-d]피리미딘 [화합물 17d]	93±2 % of LPS
2-(4-(1-페닐에틸아미노)-6-(메틸티오)-1H-피라졸로[3,4-d]피리미딘-1-일)에틸카바메이트 [화합물 14g]	33.5±1.3 % of LPS
2-(4-(4-플루오로벤질아미노)-6-(메틸티오)-1H-피라졸로[3,4-d]피리미딘-1-일)에틸카바메이트 [화합물 14f]	38.3±1.3 % of LPS

same assay, conditions: 20 μM, LPS 0.2 ㎍/mL, 24 h co-treatment, nitrite by Griess at 540 nm, 1440 min

Compound	NO (% of LPS)
CC(Nc1nc(S(C)(=O)=O)nc2c1cnn2Cc1ccccc1)c1ccccc1 (single isomer, unassigned) [화합물 23q, 1-벤질-6-(메틸설포닐)-N-(1-페닐에틸)-1H-피라졸로[3,4-d]피리미딘-4-아민]	122±2.8 % of LPS
CC(Nc1nc(S(C)(=O)=O)nc2c1cnn2Cc1ccccc1)c1ccccc1 (single isomer, unassigned) [화합물 23r, 1-벤질-6-(메틸설포닐)-N-(1-페닐에틸)-1H-피라졸로[3,4-d]피리미딘-4-아민]	87±7.1 % of LPS
CSc1nc(NCc2ccccn2)c2cn[nH]c2n1 [6h, 4-(피리딘-2-일)메틸아미노-6-(메틸티오)피라졸로[3,4-d]피리미딘]	97±5 % of LPS
CCCCNc1nc(NC(C)c2ccccc2)c2cnn(Cc3ccccc3)c2n1 (stereo not drawn) [24i, 1-벤질-N6-뷰틸-N4-(1-페닐에틸)-1H-피라졸로[3,4-d]피리미딘-4,6-디아민]	42±0.8 % of LPS

same assay, conditions: Mus musculus, 20 μM, LPS 0.2 ㎍/mL, 24 h co-treatment, nitrite by Griess at 540 nm

Compound	activity at 20 µM [%]
CSc1nc(N2CCN(C)CC2)c2cn[nH]c2n1 [6n, 4-(4-메틸피페라지노)-6-(메틸티오)피라졸로[3,4-d]피리미딘]	114 ± 9

same assay, conditions: Mus musculus, BV-2, 24 h, 20 μM, LPS 0.2 ㎍/mL, 24 h co-treatment, nitrite by Griess at 540 nm

Compound	activity at 20 µM [%]
CSc1nc(Cl)c2cnn(C)c2n1 [5a, 1-메틸-4-클롤로-6-(메틸티오)피라졸로[3,4-d]피리미딘]	51 ± 2
C=CCn1ncc2c(Cl)nc(SC)nc21 [5b, 1-알릴-4-클로로-6-(메틸티오)피라졸로[3,4-d]피리미딘]	63 ± 8
CSc1nc(Cl)c2cnn(CCOC3CCCCO3)c2n1 (stereo not drawn) [5c, 1-[2-(테트라하이드로피란-2-일옥시)에틸]-4-클로로-6-(메틸티오)피라졸로[3,4-d]피리미딘]	49 ± 9
CSc1nc(Cl)c2cnn(CCNC(=O)OC(C)(C)C)c2n1 [5d, 1-[N-t-Boc-(2-아미노에틸)]-4-클로로-6-(m메틸티오)피라졸로[3,4-d]피리미딘]	48 ± 4
CSc1nc(Cl)c2cnn(-c3ccccc3)c2n1 [5e, 1-페닐-4-클로로-6-(메틸티오)피라졸로[3,4-d]피리미딘]	50 ± 7
CSc1nc(Cl)c2cnn(Cc3ccccc3)c2n1 [5f, 1-벤질-4-클로로-6-(메틸티오)피라졸로[3,4-d]피리미딘]	69 ± 3
CSc1nc(Cl)c2cnn(C(C)(C)C)c2n1 [5g, 1-t-뷰틸-4-클로로-6-(메틸티오)피라졸로[3,4-d]피리미딘]	15 ± 18
CSc1nc(Cl)c2cnn(-c3ccc(F)cc3)c2n1 [5h, 1-(4-플루오로페닐)-4-클로로-6-(메틸티오)피라졸로[3,4-d]피리미딘]	9 ± 42.2
CSc1nc(Cl)c2cnn(-c3ccc(C)cc3)c2n1 [5i, 1-(4-메틸페닐)-4-클로로-6-(메틸티오)피라졸로[3,4-d]피리미딘]	54 ± 2.7
COc1cccc(CCn2ncc3c(Cl)nc(SC)nc32)c1 [5j, 1-(3-메톡시펜에틸)-4-클로로-6-(메틸티오)-1H-피라졸로[3,4-d]피리미딘]	5 ± 49.7
COc1ccccc1CCn1ncc2c(Cl)nc(SC)nc21 [5k, 1-(2-메톡시펜에틸)-4-클로로-6-(메틸티오)-1H-피라졸로[3,4-d]피리미딘]	5 ± 62.9
C=CCNc1nc(SC)nc2[nH]ncc12 [6b, 4-알릴아미노-6-(메틸티오)피라졸로[3,4-d]피리미딘]	100 ± 4
CSc1nc(NCCc2ccccc2)c2cn[nH]c2n1 [6c, 4-펜에틸아미노-6-(메틸티오)피라졸로[3,4-d]피리미딘]	91 ± 4
CSc1nc(NCc2ccc(F)cc2)c2cn[nH]c2n1 [6d, 4-(4-플루오로벤질)아미노-6-(메틸티오)피라졸로[3,4-d]피리미딘]	84 ± 8
CCCCNc1nc(SC)nc2[nH]ncc12 [6e, 4-n-뷰틸아미노-6-(메틸티오)피라졸로[3,4-d]피리미딘]	83 ± 9
CSc1nc(NCCO)c2cn[nH]c2n1 [6f, 4-(1-하이드록시에틸)아미노-6-(메틸티오)피라졸로[3,4-d]피리미딘]	87 ± 6
CSc1nc(NCCN2CCCCC2)c2cn[nH]c2n1 [6g, 4-(2-피페리딘-1-일)에틸아미노-6-(메틸티오)피라졸로[3,4-d]피리미딘]	102 ± 6
COc1cccc(CNc2nc(SC)nc3[nH]ncc23)c1 [6i, 4-(3-메톡시벤질)아미노-6-(메틸티오)피라졸로[3,4-d]피리미딘]	48 ± 10
CSc1nc(NC(C)C2CCCCC2)c2cn[nH]c2n1 (stereo not drawn) [6j, 4-(1-사이클로헥실에틸)아미노-6-(메틸티오)피라졸로[3,4-d]피리미딘]	66 ± 10
CSc1nc(N[C@H](C)c2ccccc2)c2cn[nH]c2n1 [6k, (R)-4-(1-페닐에틸)아미노-6-(메틸티오)피라졸로[3,4-d]피리미딘]	16 ± 17
CSc1nc(NC(C)(C)CO)c2cn[nH]c2n1 [6l, 4-(2-하이드록시-1-다이메틸에틸)아미노-6-(메틸티오)피라졸로[3,4-d]피리미딘]	125 ± 14
CSc1nc(NCCCn2ccnc2)c2cn[nH]c2n1 [6m, 4-(3-이미다졸-1-일)프로판아미노-6-(메틸티오)피라졸로[3,4-d]피리미딘]	97 ± 6
CSc1nc(N(CCO)CCO)c2cn[nH]c2n1 [6o, 4-(디-2-하이드로에틸)아미노-6-(메틸티오)피라졸로[3,4-d]피리미딘]	106 ± 10

Compound	activity at 20 µM [%]
CSc1nc(NCc2ccc(Cl)cc2)c2cn[nH]c2n1 [6p, 4-(4-클로로벤질)아미노-6-(메틸티오)피라졸로[3,4-d]피리미딘]	50 ± 23
CSc1nc(NCc2ccc(C)cc2)c2cn[nH]c2n1 [6q, 4-(4-메틸벤질)아미노-6-(메틸티오)피라졸로[3,4-d]피리미딘]	90 ± 15
CSc1nc(NCc2ccccc2C)c2cn[nH]c2n1 [6r, 4-(2-메틸벤질)아미노-6-(메틸티오)피라졸로[3,4-d]피리미딘]	64 ± 3
CSc1nc(N2CCCCC2)c2cn[nH]c2n1 [6s, 4-피페리디노-6-(메틸티오)피라졸로[3,4-d]피리미딘]	85 ± 15
CSc1nc(NC2CCCCC2)c2cn[nH]c2n1 [6t, 4-사이클로헥실아미노-6-(메틸티오)피라졸로[3,4-d]피리미딘]	106 ± 5
CCN(CC)c1nc(SC)nc2[nH]ncc12 [6u, 4-다이에틸아미노-6-(메틸티오)피라졸로[3,4-d]피리미딘]	87 ± 8
COc1ccccc1CNc1nc(SC)nc2[nH]ncc12 [6v, 4-(2-메톡시벤질)아미노-6-(메틸티오)피라졸로[3,4-d]피리미딘]	36 ± 7
CSc1nc(NCc2ccccc2Cl)c2cn[nH]c2n1 [6w, N-(2-클로로벤질)-6-(메틸티오)-1H-피라졸로[3,4-d]피리미딘-4-아민]	46 ± 2.9
COc1ccc(CNc2nc(SC)nc3[nH]ncc23)cc1 [6x, N-(4-메톡시벤질)-6-(메틸티오)-1H-피라졸로[3,4-d]피리미딘-4-아민]	115 ± 3.2
CSc1nc(NCc2ccccn2)c2cn[nH]c2n1 [6y, 6-(메틸티오)-N-((피리딘-2-일)메틸)-1H-피라졸로[3,4-d]피리미딘-4-아민]	90 ± 2.9
CSc1ncc2cnn(-c3ccccc3)c2n1 [7b, 1-페닐-6-(메틸티오)피라졸로[3,4-d]피리미딘]	78 ± 4
CSc1nc2c(cnn2-c2ccccc2)c(=O)[nH]1 [8b, 1-페닐-6-(메틸티오)피라졸로[3,4-d]피리미딘-4-온]	75 ± 3
CSc1nc2c(cnn2-c2ccccc2)c(=S)[nH]1 [9b, 1-페닐-6-(메틸티오)피라졸로[3,4-d]피리미딘-4-티온]	94 ± 7
CSc1nc2c(cnn2Cc2ccccc2)c(=S)[nH]1 [9c, 1-벤질-6-(메틸티오)피라졸로[3,4-d]피리미딘-4-티온]	79 ± 5
CSc1nc2c(cnn2C(C)(C)C)c(=S)[nH]1 [9d, 1-t-뷰틸-6-(메틸티오)피라졸로[3,4-d]피리미딘-4-티온]	108 ± 5
CSc1nc(NCc2ccccc2)c2cnn(C)c2n1 [12a, 1-메틸-4-벤질아미노-6-(메틸티오)피라졸로[3,4-d]피리미딘]	77 ± 2
CSc1nc(NC(C)(C)CO)c2cnn(C)c2n1 [12b, 1-메틸-4-[(1-하이드록시-2,2-다이메틸)에틸]아미노-6-(메틸티오)피라졸로[3,4-d]피리미딘]	90 ± 7
CSc1nc(N(CCO)CCO)c2cnn(C)c2n1 [12c, 1-메틸-4-비스(1-하이드록시에틸)아미노-6-(메틸티오)피라졸로[3,4-d]피리미딘]	115 ± 6
CSc1nc(NCCCn2ccnc2)c2cnn(C)c2n1 [12d, 1-메틸-4-[3-(이미다졸-1-일)]프로필아미노-6-(메틸티오)피라졸로[3,4-d]피리미딘]	75 ± 1
CSc1nc(NCCO)c2cnn(C)c2n1 [12e, 1-메틸-4-(1-하이드록시에틸)아미노-6-(메틸티오)피라졸로[3,4-d]피리미딘]	91 ± 2
CSc1nc(NCc2ccc(F)cc2)c2cnn(C)c2n1 [12f, 1-메틸-4-(4-플루오로벤질)아미노-6-(메틸티오)피라졸로[3,4-d]피리미딘]	72 ± 2
CSc1nc(NCCc2ccccc2)c2cnn(C)c2n1 [12g, 1-메틸-4-(2-페닐에틸)아미노-6-(메틸티오)피라졸로[3,4-d]피리미딘]	92 ± 1
COc1ccc(CNc2nc(SC)nc3c2cnn3C)cc1 [12h, 1-메틸-4-(4-메톡시벤질)아미노-6-(메틸티오)피라졸로[3,4-d]피리미딘]	33 ± 10

same assay, conditions: Mus musculus, BV-2, 24 h, 30 μM, LPS 0.2 ㎍/mL, 24 h co-treatment, nitrite by Griess at 540 nm

Compound	activity at 30 µM [%]
CSc1nc(Cl)c2cnn(-c3ccc(F)cc3)c2n1 [5h, 1-(4-플루오로페닐)-4-클로로-6-(메틸티오)피라졸로[3,4-d]피리미딘]	59.6
CSc1ncc2cn[nH]c2n1 [7a, 6-(메틸티오)피라졸로[3,4-d]피리미딘]	79 ± 1
CSc1nc2[nH]ncc2c(=O)[nH]1 [8a, 6-(메틸티오)피라졸로[3,4-d]피리미딘-4-온]	75 ± 0.9
CSc1nc2[nH]ncc2c(=S)[nH]1 [9a, 6-(메틸티오)피라졸로[3,4-d]피리미딘-4-티온]	98 ± 5.5
COc1nc(SC)nc2[nH]ncc12 [10a, 4-메톡시-6-(메틸티오)피라졸로[3,4-d]피리미딘]	91 ± 2.4
CCOc1nc(SC)nc2[nH]ncc12 [10b, 4-에톡시-6-(메틸티오)피라졸로[3,4-d]피리미딘]	93 ± 9
CSc1nc(NCc2ccccc2)c2c(I)n[nH]c2n1 [11a, 3-아이오도-4-벤질아미노-6-(메틸티오)피라졸로[3,4-d]피리미딘]	27 ± 11
CSc1nc(NCCO)c2c(I)n[nH]c2n1 [11b, 3-아이오도-4-(1-하이드록시에틸)아미노-6-(메틸티오)피라졸로[3,4-d]피리미딘]	82 ± 7
COc1nc(SC)nc2[nH]nc(I)c12 [11d, 3-아이오도-4-메톡시-6-(메틸티오)피라졸로[3,4-d]피리미딘]	91 ± 3

same assay, conditions: Mus musculus, BV-2, 24 h, 50 μM (printed in cell of the 30 μM column), LPS 0.2 ㎍/mL, 24 h co-treatment

Compound	activity at 50 µM [%]
CSc1nc(NCc2ccccc2)c2cn[nH]c2n1 [6a, 4-벤질아미노-6-(메틸티오)피라졸로[3,4-d]피리미딘]	35 ± 4
